According to publication PMC6061170, “Synthesis and biological investigations of 3β-aminotropane arylamide derivatives with atypical antipsychotic profile” (Medicinal Chemistry Research, 2018):
Values joined by “and” are separate entries in the source; they are usually repeats but may differ in a detail not shown here. Identical values can stand only once. Counter-ions that a name gives are not always drawn. Like-named read-outs stand apart in the source and are kept apart here.

Columns and labels:
CD-1 mice [1] = test: MK-801-induced hyperlocomotor activity
dopamine D2 receptors = dopamine D2 receptors (Rattus norvegicus, UniProt P61169); test: Radioligand binding assay, D2 receptors
[2] = molecular target: T1, serotonin 5-HT2A receptors (Rattus norvegicus, UniProt P14842); test: Radioligand binding assay, 5-HT2A receptors; conditions: rat brain tissues; for IC50: read-out: 5-HT2A IC50 [nM] ± SEM; for Ki: read-out: 5-HT2A Ki [nM] ± SEM
T1 construct: from tissue; host or cells: rat brain tissues

Albino Swiss mice [3] = test: Forced swim test; conditions: last 4 min of session
Albino Swiss mice [4] = test: Four-plate test
[5] = molecular target: T2, serotonin 5-HT1A receptors (Rattus norvegicus, UniProt P19327); test: Radioligand binding assay, 5-HT1A receptors; conditions: for IC50: rat brain tissues, read-out: 5-HT1A IC50 [nM] ± SEM
T2 construct: from tissue; host or cells: rat brain tissues
T2 sequence (P19327 1-422): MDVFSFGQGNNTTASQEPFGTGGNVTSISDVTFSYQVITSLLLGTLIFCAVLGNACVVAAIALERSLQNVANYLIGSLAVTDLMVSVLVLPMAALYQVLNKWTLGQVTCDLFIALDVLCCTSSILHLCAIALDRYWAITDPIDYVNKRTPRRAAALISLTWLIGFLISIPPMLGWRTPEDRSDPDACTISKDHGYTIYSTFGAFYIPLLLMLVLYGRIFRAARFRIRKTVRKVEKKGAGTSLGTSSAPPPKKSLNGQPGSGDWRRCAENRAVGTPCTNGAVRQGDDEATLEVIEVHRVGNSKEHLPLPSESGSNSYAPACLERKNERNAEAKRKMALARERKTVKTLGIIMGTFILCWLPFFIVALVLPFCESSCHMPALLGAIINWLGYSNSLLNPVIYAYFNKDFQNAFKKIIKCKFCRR
Method: All compounds were tested for their affinities for 5-HT1A, 5-HT2A, and D2 receptors according to previously described procedures (Stefanowicz et al. [2016]).
Competition binding studies were performed according to a previously described procedure in rat brain tissues (Stefanowicz et al. [2016]).

CD-1 mice [6] = test: d-Amphetamine-induced hyperlocomotor activity
CD-1 mice [7] = test: Spontaneous locomotor activity; assay type: in vivo
[8] = molecular target: T1, serotonin 5-HT2A receptors; design: method as in Słowiński et al. 2011, 2013; Stefanowicz et al. 2016; conditions: earlier lead structures, Fig. 1/Fig. 2; ref Słowiński et al. 2011, 2013; Stefanowicz et al. 2016; cited from earlier work
[9] = 1.25 mg/kg i.p. 30 min before test
[10] = 2.5 mg/kg i.p. 30 min before test
[11] = 5 mg/kg i.p. 30 min before test
[12] = 10 mg/kg i.p. 30 min before test

T1 sequence (P14842 whole entry): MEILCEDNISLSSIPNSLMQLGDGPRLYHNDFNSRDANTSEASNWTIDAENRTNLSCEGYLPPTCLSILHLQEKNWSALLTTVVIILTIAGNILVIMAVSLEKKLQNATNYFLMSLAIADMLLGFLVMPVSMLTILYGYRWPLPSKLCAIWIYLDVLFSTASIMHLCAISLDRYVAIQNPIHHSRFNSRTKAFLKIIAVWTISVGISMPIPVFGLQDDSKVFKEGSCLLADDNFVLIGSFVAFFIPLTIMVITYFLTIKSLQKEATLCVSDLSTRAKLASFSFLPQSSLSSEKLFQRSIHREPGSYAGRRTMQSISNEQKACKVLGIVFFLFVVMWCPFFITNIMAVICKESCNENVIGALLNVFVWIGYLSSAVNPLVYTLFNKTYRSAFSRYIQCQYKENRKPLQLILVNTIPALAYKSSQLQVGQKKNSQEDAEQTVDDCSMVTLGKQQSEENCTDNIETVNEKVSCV
Chain of dopamine D2 receptors (P61169 1-415 isoform P61169-2): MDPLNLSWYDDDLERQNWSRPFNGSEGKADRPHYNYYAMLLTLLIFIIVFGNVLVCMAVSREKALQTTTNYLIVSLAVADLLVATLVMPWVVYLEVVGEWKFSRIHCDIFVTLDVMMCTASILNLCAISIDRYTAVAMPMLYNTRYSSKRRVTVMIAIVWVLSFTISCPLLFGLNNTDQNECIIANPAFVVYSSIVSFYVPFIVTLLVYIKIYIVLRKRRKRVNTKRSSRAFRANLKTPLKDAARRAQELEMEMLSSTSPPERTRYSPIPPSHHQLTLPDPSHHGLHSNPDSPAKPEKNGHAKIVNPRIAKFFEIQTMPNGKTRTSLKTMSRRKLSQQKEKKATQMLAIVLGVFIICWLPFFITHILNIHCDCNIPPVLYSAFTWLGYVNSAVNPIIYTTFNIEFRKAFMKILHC

Structure (SMILES)	IC50 [2] [nM]	Ki [2] [nM]	Immobility time (s) Mean ± SEM (Albino Swiss mice [3]; [9]) [s]	Immobility time (s) Mean ± SEM (Albino Swiss mice [3]; [10]) [s]	Immobility time (s) Mean ± SEM (Albino Swiss mice [3]; [11])	Number of punished crossings /1 min Mean ± SEM (Albino Swiss mice [4]; [10]) [crossings/1 min]	Number of punished crossings /1 min Mean ± SEM (Albino Swiss mice [4]; [11]) [crossings/1 min]	Number of punished crossings /1 min Mean ± SEM (Albino Swiss mice [4]; [12])	Ki [5] [nM]	IC50 [5] [nM]	Ki [8] [nM]	also measured
Cc1ccc(CN2C3CCC2CC(NC(=O)c2ccc4ccccc4n2)C3)cc1 (stereo not drawn) [Compound 12i, N-[8-(4-methylbenzyl)-8-azabicyclo[3.2.1]oct-3β-yl)]-quinoline-2-carboxamide oxalate]	> 10000	> 10000	132.00 ± 2.93	149.89 ± 12.7	219.67 ± 1.43; p < 0.05 F(3,26) = 7.5750; p < 0.001 s	3.1 ± 0.3	2.3 ± 0.4	1.7 ± 0.4; p < 0.05 F(3,35) = 4.2954; p < 0.05 crossings/1 min	43.5 ± 1.3	131 ± 4.4		effect on MK-801-induced hyperlocomotor activity (CD-1 mice [1]; 5 mg/kg and 10 mg/kg i.p.): significantly reduced; Number of crossings/60 min Mean ± SEM (CD-1 mice [1]; compound 5 mg/kg i.p. 30 min + MK-801 0.2 mg/kg): 2432.8 ± 526.6; ns vs. contr p < 0.01 vs. MK crossings/60 min; Number of crossings/60 min Mean ± SEM (CD-1 mice [1]; compound 10 mg/kg i.p. 30 min + MK-801 0.2 mg/kg): 805.4 ± 147.2 ns vs. contr p < 0.0001 vs. MK F(3,30) = 14.206; p < 0.0001 crossings/60 min; IC50 (dopamine D2 receptors): 37 ± 2.1 nM; Ki (dopamine D2 receptors): 7.4 ± 0.4 nM; Number of crossings/60 min Mean ± SEM (CD-1 mice [6]; compound 5 mg/kg i.p. + d-amphetamine 2.5 mg/kg s.c.): 1771.3 ± 470.4; p < 0.01 vs. amph.; ns vs. contr crossings/60 min; Number of crossings/60 min Mean ± SEM (CD-1 mice [6]; compound 10 mg/kg i.p. + d-amphetamine 2.5 mg/kg s.c.): 2046.2 ± 63.1; p < 0.01 vs. amph.; ns vs. contr F(3,34) = 6.5110; p < 0.01 crossings/60 min; decrease of locomotor hyperactivity vs. respective d-amphetamine group (CD-1 mice [6]; doses of 5 and 10 mg/kg i.p.): 60–86%; Number of crossings/60 min Mean ± SEM (CD-1 mice [7]; [9]): 1573.6 ± 149.3 crossings/60 min; Number of crossings/60 min Mean ± SEM (CD-1 mice [7]; [10]): 2676.0 ± 336.7; p < 0.01 crossings/60 min; Number of crossings/60 min Mean ± SEM (CD-1 mice [7]; [11]): 1135.8 ± 184.3 F(3,34) = 8.8733; p < 0.001 crossings/60 min; decrease of spontaneous locomotor activity (CD-1 mice [7]; 10 mg/kg): about 70%
O=C(NC1CC2CCC(C1)N2Cc1cccc(Br)c1)c1ccc2ccccc2c1 (centres unmarked) [R = -Br]											106	
COc1cc(C(=O)NC2CC3CCC(C2)N3Cc2ccccc2C)nc2ccccc12 (centres unmarked) [Compound 12d]	> 10000	> 10000	144.22 ± 14.5	113.44 ± 14.9	150.8 ± 11.4 F(3,32) = 5.5680; NS s	3.3 ± 0.3	4.8 ± 0.3	4.7 ± 0.8 F(3,36) = 3.1652; p < 0.05 crossings/1 min	34 ± 1.7	102 ± 4.9		IC50 (dopamine D2 receptors; rat brain tissues, read-out: D2 IC50 [nM] ± SEM): > 10000 nM; Ki (dopamine D2 receptors; rat brain tissues, read-out: D2 Ki [nM] ± SEM): > 10000 nM; melting point: 54.5 to 55.9 °C
C[C@]12N[C@H](Cc3ccccc31)c1ccccc12 [MK-801, reference compound]												Number of crossings/60 min Mean ± SEM (CD-1 mice [1]; MK-801 alone 0.2 mg/kg i.p. 15 min before test): 4708.1 ± 522.1; p < 0.01 vs. contr crossings/60 min and 6247.1 ± 1063.8; p < 0.01 vs. contr crossings/60 min and 8757.9 ± 1378; p < 0.00001 vs. contr crossings/60 min and 6329.9 ± 1012.5; p < 0.05 vs. contr crossings/60 min
Cc1cccc(CN2C3CCC2CC(NC(=O)c2ccc4ccccc4c2)C3)c1 (centres unmarked) [R = -CH3]											231	
